Counter-ions that a name gives are not always drawn.
Experiments:
sensitive skins = assay: Test with capsaicin: topical application of capsaicin cream, appearance of subjective signs; type: in vivo, human; conditions: 0.05 ml cream with 0.075% capsaicin on approx. 4 cm^2 of skin; subjects with sensitive skins
Procedure: In order to determine if a skin is sensitive or not, the assignee hereof has also developed a test.
The test with capsaicin entails topically applying,. to approximately 4 cm^2 of skin, 0.05 ml of a cream comprising 0.075% of capsaicin and in noting the appearance of subjective signs caused by this application, such as smarting, burning sensations and itching.

substance P = assay: In vivo functional test, neurogenic inflammation model: antidromic stimulation of the saphenous nerve, Evans blue tissular extravasation
Text: The test entailed creating a neurogenic inflammation by the antidromic stimulation of the saphenous nerve in the anaesthetized animal. This nerve innervates the cutaneous regions of the hind paws. The stimulation causes the release from the nerve endings of substance P, which is partially responsible for the neurogenic inflammation. The neurogenic inflammation was quantified by measuring the tissular permeability with Evans blue, a marker for the tissular extravasation of plasma albumin which occurs during inflammation. This reference model was used in the in vivo search for substance P antagonists. […] Dose Effect of Salbutamol in the Antidromic Stimulation Model Presented in Example 1

[1] = 1 μmol, Table I, mean of 8 experiments, p < 0.001

COc1cc(CNC(=O)CCCC/C=C/C(C)C)ccc1O [capsaicin]
erythema following subjective signs (sensitive skins): followed by the appearance of an erythema

CC(C)(C)NCC(O)c1ccc(O)c(CO)c1 (centres unmarked) [Salbutamol]
% of inhibition (substance P; [1]): 100% | activity with respect to the release of substance P, dose dependence (substance P; 0.1 to 100 nmol): dose dependent | % of inhibition (substance P; Table II, dose 0.1 nmol, n.s. (not significant)): 17% | % of inhibition (substance P; Table II, dose 1 nmol, p < 0.05): 65% | % of inhibition (substance P; Table II, dose 10 nmol, p < 0.01): 80% | % of inhibition (substance P; Table II, dose 100 nmol, p < 0.01): 100% | activity relative to that of the reference molecule, Spantide II (substance P; antidromic stimulation model): approximately 30 times

CC(C)NCC(O)c1ccc(O)c(O)c1 (centres unmarked) [Isoproterenol]
% of inhibition (substance P; [1]): 100%

Spantide II
% of inhibition (substance P; 30 nmol, Table I, mean of 8 experiments, p < 0.01): 59% | % of inhibition (substance P; Table II, dose 30 nmol, p < 0.01): 67%

CC(CCc1ccccc1)NC(C)C(O)c1ccc(O)cc1 (centres unmarked) [Nylidrin.HCl]
% of inhibition (substance P; [1]): 95%

CC(C)(C)NCC(O)COc1cccc2[nH]c(=O)[nH]c12 (centres unmarked) [CGP12177.HCl]
% of inhibition (substance P; [1]): 77% | Concentration (μg/ml of Evans blue) (substance P; 1 μmol, mean of 8 experiments, expressed as Evans blue, n.d.: not detected, control 5.98 ± 0.65): 1.37 ± 0.32 µg/mL

— patent publication US6267972A, “Cosmetic/pharmaceutical compositions comprising β-adrenergic agonists/substance P antagonists” (Societe L'Oreal S.A., priority 1995, dated 2001)
